For experiment [1], the system named is guinea pig platelet aggregation. The experiment in a line: Inhibitory action on guinea pig platelet aggregation (ADP-stimulated PRP). It is filed as cell-based. Particulars: Cavia porcellus, ADP final concentration 1 μM, in vitro, read-out: Inhibitory effect on platelet aggregation in vitro (IC50) guinea pig. The procedure:
TEST EXAMPLE 1 [I] Inhibitory action on guinea pig platelet aggregation
Blood was collected in 3.15% sodium citrate (1 ml for 9 ml of blood) by cardiac puncture from male guinea pig. The blood was centrifuged at 1000 g for 3 to 5 seconds at room temperature to obtain platelet rich plasma (PRP). The PRP was further centrifuged at 1000 g for 10 minutes to obtain platelet poor plasma (PPP). The number of platelets was measured using an automatic blood cell counter (Sysmex E2500, Toaiyou-densi). The platelet density of PRP was adjusted to 400,000/μl with PPP. Platelet aggregation was measured using an 8-channel aggregometer (NBS HEMA TRACER VI Niko Bioscience Inc.). The PRP (250 μl ) was preincubated at 37° C. for 2 minutes. and then incubated for 2 minutes. with 25 μl of physiological saline or various concentrations of test drugs followed by stimulation with ADP (final concentration: 1 μM). By comparing the maximum aggregation rates of the control and those of test drugs, the inhibitory rates were determined. The results are shown in [Table 1]-[Table 3].

The test system of experiment [2] is human platelet aggregation. As to the kind of experiment: Inhibitory action on human platelet aggregation (ADP-stimulated PRP). Particulars: ADP final concentration 3 μM, in vitro, read-out: Inhibitory effect on platelet aggregation in vitro (IC50) man. It is filed as cell-based. The procedure: [II] Inhibitory action on human platelet aggregation
Human blood was collected in 3.8% sodium citrate (1 ml for 9 ml of blood) by venipuncture from healthy male volunteers. The blood was centrifuged at 1000 g for 3 to 5 seconds at room temperature to obtain platelet rich plasma (PRP). The PRP was further centrifuged at 1000 g for 10 minutes to obtain platelet poor plasma (PPP). The number of platelets was measured using an automatic blood cell counter (Sysmex E2500, Toaiyou-densi). The platelet density of PRP was adjusted to 300,000/μl with PPP. Platelet aggregation was measured using an 8-channel aggregometer (NBS HEMA TRACER VI Niko Bioscience Inc.). The PRP (250 μl) was preincubated at 37° C. for 2 minutes. and then incubated for 2 minutes. with 25 μl of physiological saline or various concentrations of test drugs followed by stimulation with ADP (final concentration: 3 μM). By comparing the maximum aggregation rates of the control and those of test drugs, the inhibitory rates were determined. The results are shown in [Table 1]-[Table 3].

A further experiment deals with T1, GPIIb/IIIa (Homo sapiens, UniProt P05106+P08514).
T1 construct: Purification of GPIIb/IIIa from HEL Cells; endogenous in cells; host or cells: HEL cells (HEL 92.1.7; ATCC TIB180), human erythroleukemia; GPIIb/IIIa solubilized in Triton X-100, purified and adsorbed on microtiter plates
As to the kind of experiment: Inhibition of fibrinogen binding to GPIIb/IIIa. To be noted: purified GPIIb/IIIa from HEL cells, biotinylated human fibrinogen 1 nM. How it is done:
(1) Cultibation of Cells Derived from Human Erythroleukemia (Hereinafter Referred to as HEL Cells)
HEL cells (HEL 92. 1. 7; ATCC No. TIB180) were purchased from ATCC (Rockville, Md., U.S.A.). The cells were grown in RPMI medium containing 40 mM N-2-hydroxyethylpiperazin-N'-2-ethanesulfonic acid (hereinafter referred to as HEPES) (pH 7.0), 100 μg/ml of Kanamycin and 10% FCS (GIBCO Laboratories, Grand Island, N.Y., U.S.A.). Cultivation was conducted at 37° C in the presence of 5% CO2.
(2) Purification of GPIIb/IIIa from HEL Cells
Purification of GPIIb/IIIa was performed using the following modification of the method of L. A. Fitzgerald et al. [J. Biol. Chem., 262, 3936 (1987)]. The purification was conducted at room temperature unless specifically mentioned. From 7 L of the culture broth on 7th day of the cultibation (floating cells), the cells were collected by centrifugation (1,000×g, 10 minutes, 4° C.), which were washed with 20 mM Tris-HCl(pH 7.5) containing 1 mM EDTA and 150 mM NaCl. The cells were suspended in 80 ml of a solubilized buffer [20 mM Tris-HCl, 150 mM NaCl, 1% Triton X-100, 1 mM MgCl2, 1 mM CaCl2, 0.1 mM (p-amidinophenyl)methanesulfonyl fluoride (hereinafter referred to as APMSF), 10 nM leupeptin, 0.02% NaN3, pH 7.4)].
The cell suspension was gently mixed for 30 minutes at 4° C. to solubilize GPIIb/IIIa. The suspension was subjected to centrigugation (100,000×g, one hour) at 4° C. to remove cell debris to obtain a cell-extraction solution (60 ml). […] The fraction which passed through the column was charged on the ConA-Sepharose column (Pharmacia LKB, .phi. 1.0×15 cm, 20 ml/hr) to allow GPIIb/IIIa to be adsorbed thereon, then GPIIb/IIIa was eluted with column buffer solution containing 0.5 M methyl α-D-mannopyranoside. The eluate thus obtained was allowed to pass through the DEAE-Toyopearl 650 M column (Tosoh, .phi. 1.6×10.5 cm, 20 ml/hr) equilibrated with the same column buffer to remove contaminating proteins.
(3) Biotinylation of Human Fibrinogen
Biotinylation of human fibrinogen was performed by the following procedure [I. F. Charo et al., J. Biol. Chem., 266, 1415 (1991)]. Human fibrinogen (Kabi Vitrum AB, Stockholm, Sweden) was dissolved in PBS so as to make its concentration 5 mg/ml. The solution was dialyzed overnight at 4° C. against 1 L of 0.1 M NaHCO3 -0.1 M NaCl (pH 8.2). Insolubles were then removed by centrifugation (100,000×g, 30 minutes), and the solution was diluted with the same buffer to the protein concentration of 1 mg/ml. To thus-diluted solution was added powdery sulfo-N-hydroxysuccinimidobiotin (Pierce Chemical Co., Rockford, Ill., U.S.A.) so as to make its final concentration 0.2 mg/ml and gently mixed to perform biotinylate fibrinogen. The resultant was subjected to dialysis against 50 mM Tris-HCl (pH 7.4) - 100 mM NaCl-0.05% NaN3. The dialysate was distributed and stored at 4° C.
(4) Inhibition Assay for Fibrinogen Binding to GPIIb/IIIa
This experiment was performed using a modification of the method described in the above-mentioned I. F. Charo et al. report. The purified GPIIb/IIIa was diluted with the buffer A (20 mM Tris-HCl, 150 mM NaCl, 1 mM CaCl2, 0.02% NaN3, pH 7.4) to a concentration of 1 μg/ml. The diluted solution was added to 96-well microtiter plates (MaxiSorp; Nunc, Denmark) at 100 μl per well, which were left standing at 4° C. overnight to allow GPIIb/IIIa to be adsorbed on the microplates. The plate was aspirated, and then 150 μl of the buffer B (35 mg/ml BSA, 50 mM Tris-HCl, 100 mM NaCl, 2 mM CaCl2, 0.02%, NaN3, pH 7.4) was added to the plate, and blocking was performed at 30° C. for 2 hours. The plate was washed twice with 250 μl each of the buffer C (1 mg/ml BSA, 50mM Tris-HCl, 100 mM NaCl, 2 mM CaCl2, pH 7.4).

T1 sequence (P08514 32-887 limits assumed): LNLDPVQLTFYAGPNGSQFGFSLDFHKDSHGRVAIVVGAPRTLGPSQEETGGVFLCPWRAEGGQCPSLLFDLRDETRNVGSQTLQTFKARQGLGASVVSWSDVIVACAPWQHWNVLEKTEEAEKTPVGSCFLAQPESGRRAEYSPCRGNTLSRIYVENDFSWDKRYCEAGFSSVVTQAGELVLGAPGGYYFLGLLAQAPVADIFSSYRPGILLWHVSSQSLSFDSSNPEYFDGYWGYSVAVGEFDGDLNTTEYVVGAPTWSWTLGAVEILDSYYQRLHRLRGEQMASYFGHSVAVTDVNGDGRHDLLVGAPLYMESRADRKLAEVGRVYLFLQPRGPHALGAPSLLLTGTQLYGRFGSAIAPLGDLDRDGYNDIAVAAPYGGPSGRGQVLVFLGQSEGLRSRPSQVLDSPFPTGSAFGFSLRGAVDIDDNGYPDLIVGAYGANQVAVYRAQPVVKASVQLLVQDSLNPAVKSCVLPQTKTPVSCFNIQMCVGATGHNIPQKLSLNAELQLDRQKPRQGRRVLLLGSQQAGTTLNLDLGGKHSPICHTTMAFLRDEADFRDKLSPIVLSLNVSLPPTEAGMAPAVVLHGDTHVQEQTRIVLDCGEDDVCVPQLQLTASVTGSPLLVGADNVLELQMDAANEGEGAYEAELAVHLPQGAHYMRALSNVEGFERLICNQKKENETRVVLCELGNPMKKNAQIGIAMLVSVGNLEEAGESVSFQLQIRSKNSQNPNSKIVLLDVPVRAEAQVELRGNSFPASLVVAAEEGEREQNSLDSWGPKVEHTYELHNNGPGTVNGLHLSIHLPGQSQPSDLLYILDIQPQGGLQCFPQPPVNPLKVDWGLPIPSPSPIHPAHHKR
T1 sequence (P08514 891-1039 limits assumed): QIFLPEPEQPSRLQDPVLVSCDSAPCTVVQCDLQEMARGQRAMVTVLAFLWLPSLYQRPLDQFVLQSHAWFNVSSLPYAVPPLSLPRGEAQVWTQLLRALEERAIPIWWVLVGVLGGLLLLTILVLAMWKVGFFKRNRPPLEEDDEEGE
T1 sequence (P05106 27-788): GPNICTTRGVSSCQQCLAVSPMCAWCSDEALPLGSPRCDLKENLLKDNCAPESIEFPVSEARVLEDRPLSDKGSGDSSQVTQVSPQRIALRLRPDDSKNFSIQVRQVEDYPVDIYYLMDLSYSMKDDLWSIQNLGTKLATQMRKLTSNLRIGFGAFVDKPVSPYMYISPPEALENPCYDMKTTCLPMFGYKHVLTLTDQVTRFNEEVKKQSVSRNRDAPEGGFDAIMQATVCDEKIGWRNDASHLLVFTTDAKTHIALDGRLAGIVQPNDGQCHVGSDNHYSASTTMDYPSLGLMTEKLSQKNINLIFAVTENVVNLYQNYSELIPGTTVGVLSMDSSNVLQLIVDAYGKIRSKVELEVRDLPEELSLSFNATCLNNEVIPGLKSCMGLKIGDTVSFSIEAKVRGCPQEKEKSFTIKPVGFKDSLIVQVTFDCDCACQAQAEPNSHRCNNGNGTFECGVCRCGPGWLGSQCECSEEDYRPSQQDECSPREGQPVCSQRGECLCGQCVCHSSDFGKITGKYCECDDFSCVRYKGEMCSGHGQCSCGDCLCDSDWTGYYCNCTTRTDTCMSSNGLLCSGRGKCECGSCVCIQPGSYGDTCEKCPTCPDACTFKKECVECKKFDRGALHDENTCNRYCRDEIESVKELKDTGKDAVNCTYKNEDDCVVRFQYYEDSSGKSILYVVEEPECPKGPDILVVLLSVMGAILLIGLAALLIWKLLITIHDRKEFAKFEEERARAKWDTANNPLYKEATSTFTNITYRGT

As for `N=C(N)NC[C@H]1CC[C@H](C(=O)NCC(=O)N2CCN(CC(=O)O)C(=O)[C@@H]2CC(=O)O)CC1` [compound 5], the IC50 turned out to be 3800 nM in experiment [1], 1100 nM in experiment [2] and 20 nM on GPIIb/IIIa.
On to `N=C(N)NCCCCC(=O)NCC(=O)N1CCN(CC(=O)O)C(=O)[C@@H]1CC(=O)O` [compound 6], for which the IC50 on GPIIb/IIIa came to 46 nM.
As for `N=C(N)NCc1ccc(C(=O)NCC(=O)N2CCN(CC(=O)O)C(=O)[C@@H]2CC(=O)O)cc1` [compound 8], the IC50 was 1300 nM in experiment [1], 660 nM in experiment [2] and 18 nM at GPIIb/IIIa.
`N=C(N)NCc1cccc(C(=O)NCC(=O)N2CCN(CC(=O)O)C(=O)[C@@H]2CC(=O)O)c1` [compound 9] registered an IC50 at GPIIb/IIIa of 73 nM.
Take `N=C(N)Nc1ccc(C(=O)NCC(=O)N2CCN(CC(=O)O)C(=O)[C@@H]2CC(=O)O)cc1` [compound 10]: the values for the IC50 (in experiment [1]; in experiment [2]; at GPIIb/IIIa) were 340 nM, 260 nM and 4.8 nM, respectively.
The like results for `CN(CC(=O)N1CCN(CC(=O)O)C(=O)[C@@H]1CC(=O)O)C(=O)[C@H]1CC[C@H](CNC(=N)N)CC1` [compound 12] were, in that order, 1100 nM, 700 nM and 10 nM.
For the compound `N=C(N)NC[C@H]1CC[C@H](C(=O)NCC(=O)N2CCN(CC(=O)O)C(=O)[C@@H]2Cc2ccccc2)CC1` [compound 16], the figures for the IC50 (in experiment [1]; in experiment [2]; on GPIIb/IIIa) were 4600 nM, 990 nM and 32 nM, respectively.
As for `N=C(N)NC[C@H]1CC[C@H](C(=O)NCC(=O)N2CCN(CC(=O)O)C(=O)[C@@H]2CC(N)=O)CC1` [compound 22], the IC50 came to 4400 nM in experiment [1], 720 nM in experiment [2] and 23 nM on GPIIb/IIIa.
As to `N=C(N)NC[C@H]1CC[C@H](C(=O)NCC(=O)N2CCN(CC(=O)O)C(=O)[C@@H]2CCC(=O)O)CC1` [compound 32], the IC50 in experiment [1] is 3100 nM; in experiment [2], 960 nM; on GPIIb/IIIa, 15 nM.
For the compound `N=C(N)NC[C@H]1CC[C@H](C(=O)NCC(=O)N2CCN(CC(=O)O)C(=O)C2)CC1` [compound 35], the IC50 in experiment [1] came to 5200 nM; in experiment [2], 1100 nM.
On to `N=C(N)NC[C@H]1CC[C@H](C(=O)N[C@@H](Cc2ccccc2)C(=O)N2CCN(CC(=O)O)C(=O)C2)CC1` [compound 37], for which the IC50 was 7000 nM in experiment [1], 520 nM in experiment [2] and 7.9 nM on GPIIb/IIIa.
For the compound `N=C(N)N1CCC(C(=O)NCC(=O)N2CCN(CC(=O)O)C(=O)[C@@H]2CC(=O)O)CC1` [compound 38], the IC50 came out at 9600 nM in experiment [1], 1600 nM in experiment [2] and 21 nM at GPIIb/IIIa.
For the compound `N=C(N)c1ccc(C(=O)NCC(=O)N2CCN(CC(=O)O)C(=O)[C@@H]2CC(=O)O)cc1` [compound 39], the IC50 in experiment [1] is 165 nM; in experiment [2], 110 nM; on GPIIb/IIIa, 1 nM.
For the compound `N=C(N)c1ccc(CC(=O)NCC(=O)N2CCN(CC(=O)O)C(=O)[C@@H]2CC(=O)O)cc1` [compound 45], the IC50 in experiment [1] amounted to 1600 nM; in experiment [2], 1500 nM; on GPIIb/IIIa it was 8.1 nM.
As for `NCCc1ccc(C(=O)NCC(=O)N2CCN(CC(=O)O)C(=O)[C@@H]2CC(=O)O)cc1` [compound 46], the 50% inhibitory concentration (IC50) in experiment [1] worked out at 130 nM; in experiment [2], 230 nM; on GPIIb/IIIa it was 2.5 nM.
Take `NCc1ccc(C(=O)NCC(=O)N2CCN(CC(=O)O)C(=O)[C@@H]2CC(=O)O)cc1` [compound 47]: the IC50 in experiment [2] was 4200 nM.
On GPIIb/IIIa, `NCCCc1ccc(C(=O)NCC(=O)N2CCN(CC(=O)O)C(=O)[C@@H]2CC(=O)O)cc1` [compound 48] came in with an IC50 of 15 nM.
In the case of `N=C(N)Nc1ccc(C(=O)N2CCC[C@H]2C(=O)N2CCN(CC(=O)O)C(=O)[C@@H]2CC(=O)O)cc1` [compound 50], the IC50 in experiment [1] came to 345 nM; on GPIIb/IIIa, 21 nM.
Regarding `CN(CC(=O)N1CCN(CC(=O)O)C(=O)[C@@H]1CC(=O)O)C(=O)c1ccc(NC(=N)N)cc1` [compound 51], the figures for the IC50 in experiment [1] and in experiment [2] were 370 nM and 460 nM, respectively.
Turning to `N=C(N)c1ccc(C(=O)NCC(=O)N2CCN([C@@H](Cc3ccccc3)C(=O)O)C(=O)[C@@H]2CC(=O)O)cc1` [compound 54], the half-maximal inhibitory concentration (IC50) in experiment [1] was determined as 4100 nM; in experiment [2], 660 nM; at GPIIb/IIIa, 6.1 nM.
Consider `N=C(N)c1ccc(C(=O)NCC(=O)N2CCN(CC(=O)O)C(=O)C2)cc1` [compound 55], for which the concentration for half-maximal inhibition (IC50) in experiment [1] was found to be 210 nM; in experiment [2], 94 nM; on GPIIb/IIIa it was 0.42 nM.
The like results for `COC(=O)CN1CCN(C(=O)CNC(=O)c2ccc(C(=N)N)cc2)[C@@H](CC(=O)O)C1=O` [compound 57] were, in that order, 1750 nM, 2600 nM and 20 nM.
In the case of `N=C(N)c1ccc(C(=O)NCC(=O)N2CCN(CC(=O)O)C(=O)[C@@H]2Cc2ccccc2)cc1` [compound 61], the IC50 in experiment [1] worked out at 160 nM; in experiment [2] it was 130 nM.
Turning to `CCC(C)[C@H]1C(=O)N(CC(=O)O)CCN1C(=O)CNC(=O)c1ccc(NC(=N)N)cc1` (stereo partly shown) [compound 65], the IC50 in experiment [1] stood at 4600 nM; on GPIIb/IIIa, 98 nM.
As to `COC(=O)CC[C@H]1C(=O)N(CC(=O)O)CCN1C(=O)CNC(=O)c1ccc(CCN(C)C)cc1` [compound 81], the IC50 in experiment [1] came out at 2300 nM; at GPIIb/IIIa, 37 nM.

Values taken from patent publication US5294713A, “2-piperazinone compounds and their use” (Takeda Chemical Industries, Ltd., priority 1991, dated 1994).
